Reference: patent publication US20180235221A1 (priority 2015, published 2018)

Assays:
[1] = test system: Qol resistant Septoria tritici isolate (3573); test: Microtest, activity against causal agent of leaf blotch Septoria tritici; format: cell-based; settings: single active compound, MTP, 405 nm, 7 days after inoculation
[2] = test system: Qol resistant Alternaria solani isolate (141); test: Microtest, activity against early blight pathogen Alternaria solani; format: cell-based; settings: single active compound, MTP, 405 nm, 7 days after inoculation

| Compound | Observed efficacy ([1]; 0.016 ppm) [%] | Observed efficacy ([1]; 0.063 ppm) [%] | Observed efficacy ([2]; 0.063 ppm) [%] | Observed efficacy ([2]; 0.25 ppm) [%] | Observed efficacy ([2]; 0.016 ppm) [%] | Observed efficacy ([1]; 0.25 ppm) [%] |
| --- | --- | --- | --- | --- | --- | --- |
| CNC(=O)C(=N/OC)/C(C)=C\COc1ccn(-c2ccc(Cl)cc2Cl)n1 [Compound I-3, (Z,2E)-5-[1-(2,4-dichlorophenyl)pyrazol-3-yl]oxy-2-methoxyimino-N,3-dimethyl-pent-3-en-amide] | 10 | 32 | 0 | 0 | – | – |
| Cn1nnn(-c2cccc(F)c2COc2ccn(-c3ccc(Cl)cc3)n2)c1=O [II-4, 1-[2-[[1-(4-chlorophenyl)pyrazol-3-yl]oxymethyl]-3-fluoro-phenyl]-4-methyl-tetrazol-5-one] | – | – | 0 | – | 0 | – |
| Cn1nnn(-c2cccc(Cl)c2COc2ccn(-c3ccc(Cl)cc3)n2)c1=O [II-1, 1-[3-chloro-2[[1-(4-chlorophenyl)-1H-pyrazol-3-yl]oxymethyl]phenyl]-4-methyl-tetrazol-5-one] | – | – | 0 | – | 0 | 23 |
| Cc1cccc(-n2nnn(C)c2=O)c1COc1ccn(-c2ccc(Cl)cc2)n1 [II-3, 1-[2-[[1-(4-chlorophenyl)pyrazol-3-yl]oxymethyl]-3-methyl-phenyl]-4-methyl-tetrazol-5-one] | – | – | – | – | 0 | 17 |
| Cn1nnn(-c2cccc(Br)c2COc2ccn(-c3ccc(Cl)cc3)n2)c1=O [II-2, 1-[3-bromo-2-[[1-(4-chlorophenyl)pyrazol-3-yl]oxymethyl]phenyl]-4-methyl-tetrazol-5-one] | – | – | 0 | 0 | 0 | – |
| Cn1nnn(-c2cccc(F)c2COc2ccn(-c3ccc(Cl)cc3Cl)n2)c1=O [II-5, 1-[2-[[1-(2,4-dichlorophenyl)pyrazol-3-yl]oxymethyl]-3-fluoro-phenyl]-4-methyl-tetrazol-5-one] | – | – | – | – | 6 | – |
| CC(=NOCc1c(C)cccc1-n1nnn(C)c1=O)c1cccc(C(F)(F)F)c1 [II-11, -methyl-4-[3-methyl-2-[[1-[3-(trifluoromethyl)-phenyl]-ethylideneamino]oxymethyl]phenyl]tetrazol-5-one] | – | – | 0 | 15 | 0 | – |
| CNC(=O)C(=N/OC)/C(C)=C\COc1ccn(-c2ccc(Cl)cc2)n1 [Compound I-1, (Z,2E)-5-[1-(4-chlorophenyl)pyrazol-3-yl]oxy-2-methoxyimino-N,3-dimethyl-pent-3-enamide] | 10 | 21 | – | 0 | – | 49 |
